# Values quoted from earlier work, collected in patent US20250255801A1, “Novel Parenteral Composition Comprising Linagliptin or its Salts” (Zenvision Pharma LLP, priority 2021, published 2025).
# Columns and labels:
# [1] = not given; remark: listed apart in the source
# [2] = high solubility and low permeability
compound,measurement,setting,value
"CC#CCn1c(N2CCC[C@@H](N)C2)nc2c1c(=O)n(Cc1nc(C)c3ccccc3n1)c(=O)n2C [Linagliptin, 1H-Purine-2,6-dione, 8-[(3R)-3-amino-1-piperidinyl]-7-(2-butyn-1-yl)-3,7-dihydro-3-methyl-1-[(4-methyl-2 quinazolinyl)methyl]-]",Solubility in acetone,acetone,ca. 1 mg/mL
same,Solubility in ethanol,ethanol,ca. 10 mg/mL
same,Solubility in isopropanol,isopropanol,< 1000 µg/mL
same,Solubility in methanol,methanol,ca. 60 mg/mL
same,Solubility in water,water,900 µg/mL
same,oral systemic bioavailability,[1],approximately 30%
same,BCS class,[2],Class III
